Data published in patent US7989495B2, “Compositions and methods for inhibiting NF-κB mediated tumorigenicity and adhesion dependent survival of cancer cells” (University of Utah Research Foundation, priority 2002, dated 2011).
Entries after “also recorded” stand apart in the source; their conditions may differ.

Assays:
HT-29 cells = experiment: Soft agar colony formation assay (anchorage-independent proliferation); assay type: cell-based; conditions: 10 μM, 6 days in soft agar
Protocol: (§1) DLD-1, HCT-116, and HT-29 cells were cultured for 6 days in soft agar in the presence of DMSO (control), 10 μM BAY 11-7082, or 10 μM BAY 11-7085. The data points represent the means of colony counts per field (20×) performed in 5 different regions of the culture dishes. The data shown represent a typical result of two separate experiments. FIGS. 2B,C, show athymic mice received subcutaneous injections of HT-29 (B) or HCT-116 (C) cells, followed by […] of BAY 11-7085 (dark bars) or DMSO (white bars) intraperitoneally twice weekly. The bars represent the 25-75% ranges of the tumor volumes and the horizontal lines in the bars are the medians. Using the Kruskal-Wallace statistical test to compare the median tumor volumes between BAY 11-7085 and DMSO yielded a p-value of 0.005 for HT-29 cells but >0.05 for HCT-116 cells.
(§2) Anchorage-independent cell growth is a hallmark of cancer cells and is a good correlate to tumorigencity in vivo. Therefore, the effects of BAY 11-7082 and BAY 11-7085 were examined on colon cancer cell growth using the soft agar colony formation assay.

DLD-1 cells = experiment: as above; assay type: cell-based; conditions: 10 μM, 6 days in soft agar
Protocol: as §1, §2

IκB phosphorylation = conditions: Pierce et al., 1997; cited from earlier work
adherent HT-29 cells = experiment: Apoptosis assay (annexin V-FITC / propidium iodide flow cytometry), adherent cells; assay type: cell-based; conditions: for level of apoptosis (annexin V-positive, propidium iodide-negative cells): doses up to 20 μM (MG-132 20 μM), 24 hours
Protocol: The data points represent the average percent of annexin V-positive, propidium iodide-negative cells (of the total cells counted) from triplicate experiments. The error bars represent the standard error of the means. […] The results shown are a graphic representation of individual flow cytometry results expressed as the percentage of cells that were annexin V-positive of those that excluded propidium iodide. […] An immunoblot of the lysates for cleaved PARP was performed. Each lane represents equal total protein concentrations. […] The cells were allowed to adhere to plastic dishes for 1 hour after which they were washed gently in PBS and stained with crystal violet. The crystal violet stained cells were solubilized in deoxycholate and the absorbance detected in a spectrophotometer at 590 nm. The adherent cells were expressed as a fraction of the controls Each data point represents the average of triplicate experiments and the error bars the standard errors of the means.
Single cell suspensions were plated at 100,000 cells per well in 24-well plates in media containing DMSO, BAY 11-7082, BAY 11-7085, or MG-132 for 8-24 hours in an incubator. Alternatively, DMSO, BAY 11-7082, BAY 11-7085, or MG-132 were added to cells that were confluent and adherent for several days. The nonadherent cells were aspirated off with the media and spun for 3 minutes at 2,000 rpm in 15 ml polypropylene tubes. The adherent cells were washed twice with PBS, dispersed in trypsin, and spun down for 3 minutes at 2,000 rpm in 15 ml polypropylene tubes. The nonadherent and adherent cells were resuspended in 1× binding buffer (10 mM HEPES/NaOH, pH 7.4, 140 mM NaCl, and 2.5 mM CaCl2) to a final concentration of 10^6 cells/ml. 100 μl of the cell solution were transferred to a 5 ml culture tube and incubated with 5 μl of annexin V-FITC-conjugated monoclonal antibody (Pharmingen) and 10 μl of propidium iodide (from a 50 μg/ml stock solution made in PBS) in the dark at 25° C. for 15 minutes. 400 μl of binding buffer was added to each tube and the cells were analyzed by flow cytometry immediately. The percent of apoptosis was determined as the percent of annexin V-positive, propidium iodide-negative cells of the total cells counted.

[1] = test system: DLD-1 colon cancer cell line; experiment: Cell proliferation assay (crystal violet, 590 nm); assay type: cell-based
Protocol: (§3) DLD-1, HCT-116, and HT-29 colon cancer cell lines were obtained from the ATCC collection and were cultured in Dulbecco's Modification of Eagle's Medium supplemented with 10% fetal bovine serum, glutamine, penicillin, and streptomycin. 293 cells stably transfected with COX-2 (293-COX-2) under the control of a ponasterone sensitive promoter were cultured in Dulbecco's Modification of Eagle's Medium supplemented with 10% fetal bovine serum, 400 μg/ml of zeocin, 400 μg/ml of G418, glutamine, penicillin, and streptomycin. For induction of COX-2 protein expression, 293-COX-2 cells were cultured for 48 hours in media supplemented with 1 μg/ml of ponasterone. All cells were cultured at 37° C. in a humidified incubator with a 5% CO2 atmosphere.
(§4) For the cell proliferation assay, cells were dispersed and plated at 40,000 cells/well in 96-well dishes. At various days in culture, the cells were gently washed twice with 100 μl/well of ice-cold blocking buffer (1% radioimmunoassay grade BSA in PBS) and twice with 100 μl/well of ice-cold PBS. The cells were fixed for 10 min in 100% ice-cold methanol (100 μl/well), then allowed to air-dry. The cells were stained with 100μl/well of 0.1% crystal violet in H2O for 10 minutes, then washed gently four times with dd H20 and four times with PBS. The plates were then air-dried completely. The stained cells were then solubilized in 1% sodium deoxycholate, and the plates read at 590 nm in a spectrophotometer. The absorption at 590 nm is proportional to the number of attached cells.

[2] = test system: HCT-116 colon cancer cell line; experiment: Cell proliferation assay (crystal violet, 590 nm); assay type: cell-based
Protocol: as §3, §4

[3] = summary statement, concentration not given
[4] = HT-29, increasing concentrations, 8 hours, 24 h

| Compound | inhibition of anchorage-independent proliferation (HT-29 cells) | inhibition of anchorage-independent proliferation (DLD-1 cells) | effect on IκB phosphorylation (IκB phosphorylation) | level of apoptosis (annexin V-positive, propidium iodide-negative cells) (adherent HT-29 cells; adherent HT-29) | inhibition of growth of cancer cell line [1, 3] | inhibition of growth of cancer cell line [2, 3] | percentage of apoptosis in the non-adherent cell fraction at high vs lower concentrations (adherent HT-29 cells; HT-29, 50 and 100 μM, cells annexin V and propidium iodide positive (necrotic)) | percentage of apoptotic cells among cells that became non-adherent (adherent HT-29 cells; [4]) | percentage of apoptotic cells among cells that remained adherent (adherent HT-29 cells; [4]) | apoptosis of adherent cell monolayers compared with transiently suspended cells (adherent HT-29 cells; adherent HT-29, even the highest doses (10-100 μM)) | inhibition of cell proliferation ([1]; 10 μM, cultured 8 days) | inhibition of cell proliferation ([2]; 10 μM, cultured 8 days) |
| --- | --- | --- | --- | --- | --- | --- | --- | --- | --- | --- | --- | --- |
| Cc1ccc(S(=O)(=O)/C=C/C#N)cc1 [BAY 11-7082, (2E)-3-(tolysulfonyl)-2-propenenitrile] | significantly inhibited | significantly inhibited | inhibit | caused an increase in the level of apoptosis | inhibits growth | inhibits growth |  |  |  |  |  |  |
| CC(C)(C)c1ccc(S(=O)(=O)/C=C/C#N)cc1 [BAY 11-7085, (2E)-3-[4-(tertiarybutylphenyl)sulfonyl]-2-propenenitrile] | significantly inhibited | significantly inhibited | inhibit | relatively greater for MG-132 than BAY 11-7085; also recorded: caused an increase in the level of apoptosis |  |  | decreased | majority; also recorded: predominantly apoptotic | only a minority | only a relatively small degree of apoptosis | greatly inhibited cell proliferation | greatly inhibited cell proliferation |
